Organism: Rattus norvegicus
Assay: Open TG-GATES - Regimen: Single
Type: toxicity, organism-based, Sprague-Dawley
Parameters: regimen Single, gender Male, age 6 weeks
Conditions: in vivo, po, 450 mg/kg, route gavage, dose level Low; for APTT / Bas / Eos / Fbg / Hb / Ht / Lym / MCH / MCHC / MCV / Mono / Neu / Plat / RBC / Ret / WBC: tissue Blood; for KIDNEY_L / KIDNEY_R / KIDNEY_TOTAL: tissue Kidney; for LIVER: tissue Liver; for ALP / ALT / AST / BUN / CRE / Ca / Cl / DBIL / GLC / IP / K / LDH / Na / PL / RALB / TBIL / TC / TG / TP / gamma-GTP: tissue Plasma

## CC(=O)Oc1ccccc1C(=O)O [ASPIRIN]
3 h
  TERMINAL_BW: 217.1 g
  APTT: 19.8 s
  Bas: 0%
  Eos: 1%
  Fbg: 230.2 mg/dL
  Hb: 13.8 g/dL
  Ht: 38.5%
  Lym: 70%
  MCH: 21.2 pg
  MCHC: 36%
  MCV: 59 fL
  Mono: 3.4%
  Neu: 24.4%
  Plat: 136.3 x10_4/uL
  RBC: 653 x10_4/ul
  Ret: 7.3%
  WBC: 89.4 x10_2/uL
  KIDNEY_L: 0.9 g
  KIDNEY_R: 0.9 g
  KIDNEY_TOTAL: 1.8 g
  LIVER: 8.7 g
  ALP: 1084 IU/L
  ALT: 45 IU/L
  AST: 85.8 IU/L
  BUN: 14.4 mg/dL
  CRE: 0.4 mg/dL
  Ca: 9 mg/dL
  Cl: 103.6 meq/L
  DBIL: 0.06 mg/dL
  GLC: 189.2 mg/dL
  IP: 8.7 mg/dL
  K: 3.3 meq/L
  LDH: 228.8 IU/L
  Na: 141.2 meq/L
  PL: 96.6 mg/dL
  RALB: 3.6 g/dL
  TBIL: 0.1 mg/dL
  TC: 60.4 mg/dL
  TG: 20.4 mg/dL
  TP: 5.7 g/dL
  gamma-GTP: 1.2 IU/L
6 h
  TERMINAL_BW: 218.6 g
  APTT: 21.5 s
  Bas: 0%
  Eos: 0.8%
  Fbg: 230.4 mg/dL
  Hb: 13.9 g/dL
  Ht: 38.2%
  Lym: 71%
  MCH: 22.2 pg
  MCHC: 36.3%
  MCV: 61.1 fL
  Mono: 3.2%
  Neu: 24%
  Plat: 124.8 x10_4/uL
  RBC: 626.8 x10_4/ul
  Ret: 8.1%
  WBC: 90.8 x10_2/uL
  KIDNEY_L: 1 g
  KIDNEY_R: 1 g
  KIDNEY_TOTAL: 2 g
  LIVER: 9 g
  ALP: 834.4 IU/L
  ALT: 34.8 IU/L
  AST: 72.6 IU/L
  BUN: 14.6 mg/dL
  CRE: 0.4 mg/dL
  Ca: 9.2 mg/dL
  Cl: 105 meq/L
  DBIL: 0.056 mg/dL
  GLC: 204 mg/dL
  IP: 7.7 mg/dL
  K: 3.4 meq/L
  LDH: 221.2 IU/L
  Na: 141 meq/L
  PL: 113.2 mg/dL
  RALB: 3.5 g/dL
  TBIL: 0.1 mg/dL
  TC: 67.8 mg/dL
  TG: 32.8 mg/dL
  TP: 5.6 g/dL
  gamma-GTP: 1 IU/L
9 h
  TERMINAL_BW: 215.1 g
  APTT: 21.4 s
  Bas: 0%
  Eos: 0.8%
  Fbg: 220.4 mg/dL
  Hb: 13.6 g/dL
  Ht: 38.2%
  Lym: 68.2%
  MCH: 21.9 pg
  MCHC: 35.5%
  MCV: 61.8 fL
  Mono: 2.2%
  Neu: 28%
  Plat: 124.6 x10_4/uL
  RBC: 619.4 x10_4/ul
  Ret: 8.4%
  WBC: 94.9 x10_2/uL
  KIDNEY_L: 1 g
  KIDNEY_R: 1 g
  KIDNEY_TOTAL: 1.9 g
  LIVER: 7.9 g
  ALP: 828 IU/L
  ALT: 34.4 IU/L
  AST: 77.4 IU/L
  BUN: 13.2 mg/dL
  CRE: 0.4 mg/dL
  Ca: 9.1 mg/dL
  Cl: 106.8 meq/L
  DBIL: 0.05 mg/dL
  GLC: 201.2 mg/dL
  IP: 8.3 mg/dL
  K: 3.4 meq/L
  LDH: 210.2 IU/L
  Na: 141.2 meq/L
  PL: 93.4 mg/dL
  RALB: 3.3 g/dL
  TBIL: 0.096 mg/dL
  TC: 55.2 mg/dL
  TG: 12.6 mg/dL
  TP: 5.4 g/dL
  gamma-GTP: 0.8 IU/L
24 h
  TERMINAL_BW: 217.9 g
  APTT: 24.7 s
  Bas: 0.4%
  Eos: 1%
  Fbg: 222 mg/dL
  Hb: 14.4 g/dL
  Ht: 38.6%
  Lym: 79.8%
  MCH: 22.7 pg
  MCHC: 37.2%
  MCV: 60.9 fL
  Mono: 2.2%
  Neu: 16.2%
  Plat: 129 x10_4/uL
  RBC: 633.6 x10_4/ul
  Ret: 7.2%
  WBC: 106.4 x10_2/uL
  KIDNEY_L: 1 g
  KIDNEY_R: 1 g
  KIDNEY_TOTAL: 1.9 g
  LIVER: 9.2 g
  ALP: 905.4 IU/L
  ALT: 43.4 IU/L
  AST: 82.4 IU/L
  BUN: 15.8 mg/dL
  CRE: 0.5 mg/dL
  Ca: 10.4 mg/dL
  Cl: 104.6 meq/L
  DBIL: 0.048 mg/dL
  GLC: 196.4 mg/dL
  IP: 8.6 mg/dL
  K: 3.7 meq/L
  LDH: 199.2 IU/L
  Na: 141 meq/L
  PL: 107 mg/dL
  RALB: 3.5 g/dL
  TBIL: 0.092 mg/dL
  TC: 56 mg/dL
  TG: 39.6 mg/dL
  TP: 5.6 g/dL
  gamma-GTP: 1 IU/L

Source: ChEMBL document CHEMBL3885861, “Open TG-GATES”
